Measured values reported in patent US20160151337A1, “ANNELATED PYRROLES AND THEIR USE AS CRAC INHIBITORS” (Grünenthal GmbH, priority 2013, published 2016).

Legend:
CRAC channel = molecular target: T1, CRAC channel (Homo sapiens, UniProt Q96D31); assay: HEK Calcium Influx Assay (FLIPR), inhibition of store-operated Ca2+ entry after thapsigargin store depletion; format: cell-based; conditions: 10 μM compound, HEK293 cells, read-out: % inhib. [@ 10 μM] FLIPR
T1 construct: endogenous in cells; host or cells: HEK293 (ECACC), untransfected
Method in brief: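 HEK293 cells loaded with Calcium-4 dye in Ca2+-free HBS (pH 7.4), stores depleted with 2 μM thapsigargin for 10 min (100 μM EGTA); after 3 mM CaCl2 re-addition and 15 min steady-state, compounds added and FLIPR signal averaged 9.5–10 min post-dose. IC50 from 8-point 1:3.16 dilutions from 10 μM, normalised to DMSO and non-depleted wells.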

[1] = test system: Interleukin-2 (IL-2) production/release in Jurkat T cells; assay: Jurkat IL-2 Production Assay (PHA-stimulated, IL-2 AlphaLisa); format: cell-based; conditions: Homo sapiens, PHA 15 μg/ml, 22 h, inhibition of IL-2 production
Description: The effect of compounds of the invention on Interleukin-2 (IL-2) production/release was tested in the Jurkat T cell line (ECACC) clone E6-1.
Jurkat T cells were cultured in DMEM/F12/Glutamax (Gibco) containing 10% FCS (Gibco), and maintained at 37° C., 5% CO2. Cells were split twice a week [5*10^6 (Mon-Thu) and 1*10^7 (Thu-Mon) cells/50 ml medium in 1-175 ZK culture flasks, respectively].
Prior to experiment, cells were seeded on 96 well plates (Cellstar 96 Well; Cat No. 655180, Greiner bio-one) at a density of 5*10^5 cells/well in DMEM/F12/Glutamax (Gibco) containing 10% FCS (Gibco), and incubated for 60 min at 37° C., 5% CO2. Subsequently, compounds were added and cells were allowed to incubate for 30 min at 37° C., 5% CO2. Cells were then stimulated with 15 μg/ml Phyto-hemagglutinin (PHA; Sigma) for 22 hours at 37° C., 5% CO2.
Before sampling of the supernatants, cells were spun down (200*g/5 min/RT). The amount of IL-2 released into the supernatant was quantified with the human IL-2 AlphaLisa kit (Perkin Elmer) according to manufacturer's instructions. Luminescence proximity measurements were carried out in the Synergy H4 reader (BioTek) employing the fluorescence setting of the reader (ex: 680/30 nm; em: 620/40 nm).
Inhibition of IL-2 production/release in/from Jurkat T cells was quantified as follows: Zero percent inhibition (MAX) was defined as the [IL-2] determined in supernatants derived from cells to which PHA & DMSO-only had been added instead of compound. Hundred percent inhibition (MIN) was defined as the [IL-2] determined in supernatants derived from cells that had been pre-treated with 1 μM CyclosporineA (Sigma) before the addition of 15 μg/ml PHA.
For routine IC50 determinations of compounds, 8 concentrations of a serial dilution (1:3.16) were tested, starting off from 10 μM.

T1 sequence (Q96D31 whole entry): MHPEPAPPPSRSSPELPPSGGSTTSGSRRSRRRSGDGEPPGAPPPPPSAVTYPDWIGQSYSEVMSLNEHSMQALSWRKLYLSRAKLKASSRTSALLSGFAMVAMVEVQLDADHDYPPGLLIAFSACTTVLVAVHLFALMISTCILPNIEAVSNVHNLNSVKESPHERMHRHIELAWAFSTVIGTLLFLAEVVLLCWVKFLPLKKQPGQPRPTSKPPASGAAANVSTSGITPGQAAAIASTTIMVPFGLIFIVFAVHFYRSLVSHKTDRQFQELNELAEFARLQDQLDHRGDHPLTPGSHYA

Row | SMILES | inhibition at 10 µM (CRAC channel) | IC50 [1]
1 | CCc1sc(-c2cccnc2)nc1N1CCc2[nH]c(-c3c(F)cccc3F)cc2C1 [Example 31, 4-[2-(2,6-Difluoro-phenyl)-4,5,6,7-tetrahydro-1H-pyrrolo[3,2-c]pyridin-5-yl]-5-ethyl-2-pyridin-3-yl-thiazole] | < 50% | < 0.5 µM
2 | Cc1cc(C2CC2)ncc1N1CCc2[nH]c(-c3c(F)cccc3F)cc2C1 [Example 75, 5-(6-Cyclopropyl-4-methyl-pyridin-3-yl)-2-(2,6-difluoro-phenyl)-4,5,6,7-tetrahydro-1H-pyrrolo[3,2-c]pyridine] | > 70% | 1 to 5 µM
3 | Cc1sc(-c2cnccn2)nc1N1CCc2[nH]c(-c3c(F)cccc3F)cc2C1 [Example 26, 4-[2-(2,6-Difluoro-phenyl)-4,5,6,7-tetrahydro-1H-pyrrolo[3,2-c]pyridin-5-yl]-5-methyl-2-pyrazin-2-yl-thiazole] | > 70% | < 0.5 µM
4 | COCc1ccc(N2CCc3[nH]c(-c4c(F)cccc4F)cc3C2)c(C)c1 [Example 105, 2-(2,6-Difluoro-phenyl)-5-[4-(methoxymethyl)-2-methyl-phenyl]-4,5,6,7-tetrahydro-1H-pyrrolo[3,2-c]pyridine] | > 70% | 0.5 to 1 µM
5 | Cc1cc(S(C)(=O)=O)ncc1N1CCc2[nH]c(-c3c(F)cccc3F)cc2C1 [Example 16, 2-(2,6-Difluoro-phenyl)-5-(4-methyl-6-methylsulfonyl-pyridin-3-yl)-4,5,6,7-tetrahydro-1H-pyrrolo[3,2-c]pyridine] | > 70% | < 0.5 µM
6 | COc1cc(S(C)(=O)=O)ccc1N1CCc2[nH]c(-c3c(F)cccc3F)cc2C1 [Example 28, 2-(2,6-Difluoro-phenyl)-5-(2-methoxy-4-methylsulfonyl-phenyl)-4,5,6,7-tetrahydro-1H-pyrrolo[3,2-c]pyridine] | > 70% | 0.5 to 1 µM
7 | Cc1cc(S(=O)(=O)C(F)(F)F)ccc1N1CCc2[nH]c(-c3c(F)cccc3F)cc2C1 [Example 86, 2-(2,6-Difluoro-phenyl)-5-[2-methyl-4-(trifluoromethylsulfonyl)-phenyl]-4,5,6,7-tetrahydro-1H-pyrrolo[3,2-c]pyridine] | < 50% | 1 to 5 µM
8 | Cc1sc(-c2ccccn2)nc1N1CCc2[nH]c(-c3c(F)cccc3F)cc2C1 [Example 6, 4-[2-(2,6-Difluoro-phenyl)-4,5,6,7-tetrahydro-1H-pyrrolo[3,2-c]pyridin-5-yl]-5-methyl-2-pyridin-2-yl-thiazole] | 50 to 70% | < 0.5 µM
9 | Cc1cc(C#N)ccc1N1CCc2[nH]c(-c3c(F)cccc3F)cc2C1 [Example 12, 4-[2-(2,6-Difluoro-phenyl)-4,5,6,7-tetrahydro-1H-pyrrolo[3,2-c]pyridin-5-yl]-3-methyl-benzonitrile] | 50 to 70% | < 0.5 µM
10 | COc1cc(C(F)(F)F)ncc1N1CCc2[nH]c(-c3c(F)cccc3F)cc2C1 [Example 112, 2-(2,6-Difluoro-phenyl)-5-[4-methoxy-6-(trifluoromethyl)-pyridin-3-yl]-4,5,6,7-tetrahydro-1H-pyrrolo[3,2-c]pyridine] | < 50% | < 0.5 µM
11 | Cc1cc(S(=O)(=O)N2CCCC2)ccc1N1CCc2[nH]c(-c3c(F)cccc3F)cc2C1 [Example 121, 2-(2,6-Difluoro-phenyl)-5-[2-methyl-4-(pyrrolidin-1-ylsulfonyl)-phenyl]-4,5,6,7-tetrahydro-1H-pyrrolo[3,2-c]pyridine] | > 70% | 1 to 5 µM
12 | CCn1nc(C2(C(F)(F)F)CC2)cc1N1CCc2[nH]c(-c3c(F)cccc3F)cc2C1 [Example 124, 2-(2,6-Difluoro-phenyl)-5-[2-ethyl-5-[1-(trifluoromethyl)-cyclopropyl]-2H-pyrazol-3-yl]-4,5,6,7-tetrahydro-1H-pyrrolo[3,2-c]pyridine] | < 50% | < 0.5 µM
